Assay results reported in patent US7560468B2, “Substituted 1,4,8-triazaspiro[4,5]decan-2-one compounds” (Gruenenthal GmbH, priority 2004, dated 2009).

Assays:
[1] = test system: batrachotoxin (BTX) binding site of the sodium channel; test: Affinity to the batrachotoxin (BTX) binding site of the sodium channel; conditions: rat cerebrocortex synaptosomes, [3H]-batrachotoxinin A20 α-benzoate 10 nM; test concentration not given
[2] = target: T1, 5-HT transporter (Rattus norvegicus, UniProt P31652); test: Inhibition of 5-HT uptake in synaptosomes; format: biochemical; conditions: for inhibition at 1 µM: read-out: Uptake_5-HT, rat, 1 μM, % inhibition
T1 construct: from tissue; host or cells: rat brain synaptosomes (marrow/medulla and pons), P2 fraction
T1 sequence (P31652 whole entry): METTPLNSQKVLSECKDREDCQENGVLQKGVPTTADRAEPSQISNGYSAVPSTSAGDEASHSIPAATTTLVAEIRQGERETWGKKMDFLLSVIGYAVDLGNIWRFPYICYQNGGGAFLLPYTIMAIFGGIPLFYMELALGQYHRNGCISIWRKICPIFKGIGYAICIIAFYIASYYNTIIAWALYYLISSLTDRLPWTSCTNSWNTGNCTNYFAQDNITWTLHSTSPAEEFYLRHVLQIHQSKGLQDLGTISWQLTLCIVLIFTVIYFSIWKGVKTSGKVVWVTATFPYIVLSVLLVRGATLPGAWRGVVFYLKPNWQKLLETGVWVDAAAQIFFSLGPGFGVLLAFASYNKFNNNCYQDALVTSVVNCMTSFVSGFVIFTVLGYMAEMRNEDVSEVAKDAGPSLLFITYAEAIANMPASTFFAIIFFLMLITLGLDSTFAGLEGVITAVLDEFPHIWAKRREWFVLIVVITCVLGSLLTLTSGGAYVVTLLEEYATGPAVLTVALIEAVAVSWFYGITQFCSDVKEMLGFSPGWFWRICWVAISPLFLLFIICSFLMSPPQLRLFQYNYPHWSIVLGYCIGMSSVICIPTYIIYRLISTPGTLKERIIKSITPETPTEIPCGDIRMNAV

Row | SMILES | BTX Inhibition [1] | Uptake_5-HT, rat, 1 μM, % inhibition [2] [%] | inhibition at 1 µM [2] [%]
1 | CCCCOc1ccc(S(=O)(=O)N2CCC3(CC2)NCC(=O)N3Cc2ccccc2C#N)cc1 [Example 5, 2-[8-(4-Butoxy-benzolsulfonyl)-2-oxo-1,4,8-triazaspiro[4,5]dec-1-ylmethyl]-benzonitrile] | 59 | 30 | 
2 | CCC(C)(C)c1ccc(S(=O)(=O)N2CCC3(CC2)NCC(=O)N3Cc2ccccc2C#N)cc1 [Example 6, 2-{8-[4-(1,1-Dimethylpropyl)benzolesulfonyl]-2-oxo-1,4,8-triazaspiro[4,5]dec-1-ylmethyl}-benzonitrile] | 56 | 57 | 
3 | Cc1cc(C)c(S(=O)(=O)N2CCC3(CC2)NC(C(C)C)C(=O)N3Cc2ccccc2)c(C)c1 (stereo not shown) [Example 14, 1-Benzyl-3-isopropyl-8-(2,4,6-trimethylbenzolsulfonyl)-1,4,8-triazaspiro[4,5]decan-2-one] | 68 | 61 | 
4 | CCCCN1C(=O)C(CCSC)NC12CCN(S(=O)(=O)c1cccc(C)c1)CC2 (stereo not shown) [Example 18, 1-Butyl-3-(2-methylsulfanylethyl)-8-(toluol-3-sulfonyl)-1,4,8-triazaspiro[4,5]decan-2-one] | 32 | 68 | 
5 | CCCCN1C(=O)C(Cc2ccccc2)NC12CCN(S(=O)(=O)c1ccccc1C(F)(F)F)CC2 (stereo not shown) [Example 22, 3-Benzyl-1-butyl-8-(2-trifluoromethylbenzolsulfonyl)-1,4,8-triazaspiro[4,5]decan-2-one] | 38 | 66 | 
6 | COC(=O)c1ccccc1S(=O)(=O)N1CCC2(CC1)NC(CCSC)C(=O)N2Cc1ccc(F)cc1 (stereo not shown) [Example 23, Methyl 2-[1-(4-fluorobenzyl)-3-(2-methylsulfanylethyl)-2-oxo-1,4,8-triazaspiro[4,5]decan-8-sulfonyl]-benzoate] | 40 |  | 69
7 | CSCCC1NC2(CCN(S(=O)(=O)c3ccccc3C(F)(F)F)CC2)N(Cc2ccc(F)cc2)C1=O (stereo not shown) [Example 25, 1-(4-Fluorobenzyl)-3-(2-methylsulfanylethyl)-8-(2-trifluoromethylbenzolsulfonyl)-1,4,8-triazaspiro[4,5]decan-2-one] | 57 | 58 | 
8 | CSCCC1NC2(CCN(S(=O)(=O)c3cc(C)c(Cl)cc3C)CC2)N(Cc2ccc(F)cc2)C1=O (stereo not shown) [Example 26, 8-(4-Chloro-2,5-dimethylbenzolsulfonyl)-1-(4-fluorobenzyl)-3-(2-methylsulfanylethyl)-1,4,8-triazaspiro[4,5]decan-2-one] | 38 | 68 | 
9 | COc1ccc(S(=O)(=O)N2CCC3(CC2)NC(Cc2ccccc2)C(=O)N3Cc2ccccc2)cc1OC (stereo not shown) [Example 29, 1,3-Dibenzyl-8-(3,4-dimethoxy-benzolsulfonyl)-1,4,8-triazaspiro[4,5]decan-2-one] | 47 | 75 | 
10 | CCCCN1C(=O)C(Cc2ccccc2)NC12CCN(S(=O)(=O)c1ccc(CC)cc1)CC2 (stereo not shown) [Example 33, 3-Benzyl-1-butyl-8-(4-ethylbenzolsulfonyl)-1,4,8-triazaspiro[4,5]decan-2-one] | 54 | 67 | 
11 | O=C1C(Cc2ccccc2)NC2(CCN(S(=O)(=O)c3ccccc3F)CC2)N1Cc1ccccc1 (stereo not shown) [Example 37, 1,3-Dibenzyl-8-(2-fluorobenzolsulfonyl)-1,4,8-triazaspiro[4,5]decan-2-one] | 61 | 73 | 
12 | CSCCC1NC2(CCN(S(=O)(=O)c3ccc(C)cc3)CC2)N(Cc2ccc(F)cc2)C1=O (stereo not shown) [Example 44, 1-(4-Fluorobenzyl)-3-(2-methylsulfanylethyl)-8-(toluol-4-sulfonyl)-1,4,8-triazaspiro[4,5]decan-2-one] | 42 | 42 | 
13 | Cc1ccc(S(=O)(=O)N2CCC3(CC2)NC(Cc2ccccc2)C(=O)N3Cc2ccccc2)cc1 (stereo not shown) [Example 45, 1,3-Dibenzyl-8-(toluol-4-sulfonyl)-1,4,8-triazaspiro[4,5]decan-2-one] | 37 | 74 | 
14 | CCOC(=O)CN1C(=O)C(Cc2ccccc2)NC12CCN(S(=O)(=O)c1cccs1)CC2 (stereo not shown) [Example 48] | 30 | 85 | 
15 | COC(=O)c1ccc(CN2C(=O)CNC23CCN(S(=O)(=O)Cc2ccccc2)CC3)cc1 [Example 51, Methyl 4-(2-Oxo-8-benzolmethansulfonyl-1,4,8-triazaspiro[4,5]dec-1-ylmethyl)benzoate] | 31 | 62 | 
16 | CC1(C)C2CCC1(CS(=O)(=O)N1CCC3(CC1)NCC(=O)N3Cc1ccccc1F)C(=O)C2 (stereo not shown) [Example 56, 8-(7,7-Dimethyl-2-oxobicyclo[2.2.1]hept-1-ylmethansulfonyl)-1-(2-fluorobenzyl)-1,4,8-triazaspiro[4,5]decan-2-one] | 32 |  | 60
17 | CCOC(=O)CN1C(=O)C(CCSC)NC12CCN(S(=O)(=O)Cc1ccccc1)CC2 (stereo not shown) [Example 57, Ethyl[3-(2-methylsulfanylethyl)-2-oxo-8-benzolmethansulfonyl-1,4,8-triazaspiro[4,5]dec-1-yl]-acetate] | 34 | 32 | 

Row | SMILES | BTX Inhibition [1] | Uptake_5-HT, rat, 1 μM, % inhibition [2] [%] | inhibition at 1 µM [2] [%]
18 | C=CCN1C(=O)C(CCSC)NC12CCN(S(=O)(=O)Cc1ccccc1)CC2 (stereo not shown) [Example 58, 1-Allyl-3-(2-methylsulfanylethyl)-8-benzolmethansulfonyl-1,4,8-triazaspiro[4,5]decan-2-one] |  | 56 | 
19 | Cc1cc(C)c(S(=O)(=O)N2CCC3(CC2)NCC(=O)N3Cc2cccc(C#N)c2)c(C)c1 [Example 59, 3-[2-Oxo-8-(2,4,6-trimethylbenzolsulfonyl)-1,4,8-triazaspiro[4,5]dec-1-ylmethyl]-benzonitrile] | 50 | 50 | 
20 | COC(=O)c1ccc(CN2C(=O)CNC23CCN(S(=O)(=O)c2c(C)cc(C)cc2C)CC3)cc1 [Example 60, Methyl-4-[2-oxo-8-(2,4,6-trimethylbenzolsulfonyl)-1,4,8-triazaspiro[4,5]dec-1-ylmethyl]-benzoate] | 59 | 65 | 
21 | CCOC(=O)CN1C(=O)C(Cc2ccccc2)NC12CCN(S(=O)(=O)c1ccc(Cl)s1)CC2 (stereo not shown) [Example 61, Ethyl[3-benzyl-8-(5-chlorothiophen-2-sulfonyl)-2-oxo-1,4,8-triazaspiro[4,5]dec-1-yl]-acetate] | 50 |  | 61
22 | CCCCS(=O)(=O)N1CCC2(CC1)NC(Cc1ccccc1)C(=O)N2CC(=O)OCC (stereo not shown) [Example 62, Ethyl[3-benzyl-8-(butan-1-sulfonyl)-2-oxo-1,4,8-triazaspiro[4,5]dec-1-yl]-acetate] |  |  | 70
23 | CCOC(=O)CN1C(=O)C(Cc2ccccc2)NC12CCN(S(=O)(=O)c1cccc(C)c1)CC2 (stereo not shown) [Example 63, Ethyl[3-benzyl-2-oxo-8-(toluol-3-sulfonyl)-1,4,8-triazaspiro[4,5]dec-1-yl]-acetate] | 36 | 59 | 
24 | CCOC(=O)CN1C(=O)C(Cc2ccccc2)NC12CCN(S(=O)(=O)c1ccccc1)CC2 (stereo not shown) [Example 66, Ethyl(8-benzolsulfonyl-3-benzyl-2-oxo-1,4,8-triazaspiro[4,5]dec-1-yl)acetate] | 39 | 64 | 
25 | CCCc1ccc(S(=O)(=O)N2CCC3(CC2)NC(Cc2ccccc2)C(=O)N3CC(=O)OCC)cc1 (stereo not shown) [Example 67, Ethyl[3-benzyl-2-oxo-8-(4-propylbenzolsulfonyl)-1,4,8-triazaspiro[4,5]dec-1-yl]-acetate] | 40 | 64 | 
26 | CCOC(=O)CN1C(=O)C(Cc2ccccc2)NC12CCN(S(=O)(=O)c1ccc(F)c(Cl)c1)CC2 (stereo not shown) [Example 69, Ethyl[3-benzyl-8-(3-chloro-4-fluorobenzolsulfonyl)-2-oxo-1,4,8-triazaspiro[4,5]dec-1-yl]-acetate] | 73 | 62 | 
27 | O=C1C(Cc2ccccc2)NC2(CCN(S(=O)(=O)c3ccccc3)CC2)N1Cc1ccccc1F (stereo not shown) [Example 71, 8-Benzolsulfonyl-3-benzyl-1-(2-fluorobenzyl)-1,4,8-triazaspiro[4,5]decan-2-one] | 85 | 76 | 
28 | CC(C)NC(=S)N1CCC2(CC1)NC(=O)C(Cc1ccccc1)N2 (stereo not shown) [Example 103, 2-Benzyl-3-oxo-1,4,8-triazaspiro[4,5]decan-8-thiocarboxylic acid isopropylamide] |  |  | 41
29 | C=CCN1C(=O)C(C(C)C)NC12CCN(C(=S)Nc1ccc(F)cc1)CC2 (stereo not shown) [Example 125, 1-Allyl-3-isopropyl-2-oxo-1,4,8-triazaspiro[4,5]decan-8-thiocarboxylic acid (4-fluorobenzol)amide] |  | 34 | 
30 | CCOC(=O)CN1C(=O)C(Cc2ccccc2)NC12CCN(C(=S)NC(=O)OCC)CC2 (stereo not shown) [Example 144, Ethyl(3-benzyl-8-ethoxycarbonylaminocarbothioyl-2-oxo-1,4,8-triazaspiro[4,5]dec-1-yl)acetate] |  |  | 47
31 | C=CCN1C(=O)C(C(C)C)NC12CCN(C(=S)Nc1c(F)c(F)c(F)c(F)c1F)CC2 (stereo not shown) [Example 149, 1-Allyl-3-isopropyl-2-oxo-1,4,8-triazaspiro[4,5]decan-8-thiocarboxylic acid pentafluorobenzolamide-amide] |  | 55 | 
32 | CSCCC1NC2(CCN(C(=S)NC(C)C)CC2)N(Cc2ccc(F)cc2)C1=O (stereo not shown) [Example 176, 1-(4-Fluorobenzyl)-3-(2-methylsulfanylethyl)-2-oxo-1,4,8-triazaspiro[4,5]decan-8-thiocarboxylic acid isopropylamide] |  |  | 32
33 | CSCCC1NC2(CCN(C(=O)Nc3cccc(F)c3)CC2)N(Cc2ccccc2C#N)C1=O (stereo not shown) [Example 226, 1-(2-Cyanobenzyl)-3-(2-methylsulfanylethyl)-2-oxo-1,4,8-triazaspiro[4,5]decan-8-carboxylic acid (3-fluorobenzol)amide] |  | 55 | 
